Experimental data: article PMC2248166, “Quantitative peptide binding motifs for 19 human and mouse MHC class I molecules derived using positional scanning combinatorial peptide libraries” (Immunome Research, 2008)
Where a SMILES comes first, the peptide text is derived from it.

target: HLA A*3001 (Homo sapiens, UniProt P04439, D140H/D185E/E176W/F33S/G80R/H175R/K168Q/R138E/R41S); assay: biochemical; type: binding
Sequence (P04439 25-365 limits assumed, stated change not applied): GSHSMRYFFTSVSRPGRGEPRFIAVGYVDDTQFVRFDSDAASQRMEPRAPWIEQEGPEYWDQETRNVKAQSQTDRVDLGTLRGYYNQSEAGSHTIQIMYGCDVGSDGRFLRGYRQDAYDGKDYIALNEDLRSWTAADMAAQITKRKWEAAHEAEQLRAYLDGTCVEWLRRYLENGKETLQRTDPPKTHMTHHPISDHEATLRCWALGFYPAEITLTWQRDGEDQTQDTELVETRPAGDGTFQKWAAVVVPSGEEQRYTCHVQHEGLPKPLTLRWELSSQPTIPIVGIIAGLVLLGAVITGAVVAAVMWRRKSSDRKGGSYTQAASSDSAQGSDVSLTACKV

SMILES	IC50 [nM]
CC[C@H](C)[C@H](NC(=O)[C@H](C)NC(=O)[C@H](Cc1c[nH]cn1)NC(=O)[C@H](CO)NC(=O)[C@@H](N)CCCCN)C(=O)N[C@@H](Cc1ccc(O)cc1)C(=O)N[C@@H](Cc1c[nH]c2ccccc12)C(=O)N[C@@H](CC(=O)O)C(=O)N[C@@H](CCCCN)C(=O)O [3102.0046] (H-KSHAIYWDK-OH)	11
CSCC[C@H](NC(=O)[C@H](CCSC)NC(=O)[C@@H]1CCCN1C(=O)[C@@H](NC(=O)[C@@H](NC(=O)[C@H](CC(N)=O)NC(=O)[C@H](CCCNC(=N)N)NC(=O)[C@H](CO)NC(=O)[C@@H](N)CCCCN)[C@@H](C)O)[C@@H](C)O)C(=O)O [3102.0277] (H-KSRNTTPMM-OH)	0.1
CC(C)C[C@H](NC(=O)[C@H](C)NC(=O)[C@@H](N)CO)C(=O)N[C@@H](Cc1ccc(O)cc1)C(=O)N[C@@H](CO)C(=O)N[C@@H](Cc1ccc(O)cc1)C(=O)N[C@@H](C)C(=O)N[C@@H](CO)C(=O)N[C@@H](C)C(=O)O [3102.0177] (H-SALYSYASA-OH)	37
CSCC[C@H](NC(=O)[C@@H](N)CCCCN)C(=O)N[C@@H](CCCNC(=N)N)C(=O)N[C@@H](CC(=O)O)C(=O)N[C@H](C(=O)N[C@@H](CC(C)C)C(=O)N1CCC[C@H]1C(=O)N[C@@H](C)C(=O)N[C@@H](CCCCN)C(=O)O)[C@@H](C)O [3102.0121] (H-KMRDTLPAK-OH)	1.6
C[C@H](NC(=O)[C@H](CCCNC(=N)N)NC(=O)[C@H](Cc1ccccc1)NC(=O)[C@H](CCCCN)NC(=O)[C@@H]1CCCN1C(=O)[C@@H]1CCCN1C(=O)[C@H](CCCCN)NC(=O)[C@H](Cc1ccccc1)NC(=O)[C@@H](N)Cc1c[nH]cn1)C(=O)O [3102.0279] (H-HFKPPKFRA-OH)	8.9
CC(C)C[C@H](NC(=O)[C@H](Cc1c[nH]cn1)NC(=O)[C@H](CC(N)=O)NC(=O)[C@H](CS)NC(=O)[C@H](CCCNC(=N)N)NC(=O)[C@H](C)NC(=O)[C@@H](N)CCCCN)C(=O)N[C@H](C(=O)N[C@@H](CCCCN)C(=O)O)[C@@H](C)O [3102.0131] (H-KARCNHLTK-OH)	0.21
CC[C@H](C)[C@H](N)C(=O)N[C@@H](CO)C(=O)N[C@@H](CCCNC(=N)N)C(=O)N[C@@H](CO)C(=O)N[C@@H](CCCNC(=N)N)C(=O)N[C@@H](CCCNC(=N)N)C(=O)N[C@@H](CC(C)C)C(=O)N[C@@H](Cc1ccccc1)C(=O)N[C@@H](C)C(=O)O [3102.0065] (H-ISRSRRLFA-OH)	2.2
CC[C@H](C)[C@H](NC(=O)[C@@H](N)CCCCN)C(=O)N[C@@H](CCCCN)C(=O)N[C@@H](C)C(=O)NCC(=O)N1CCC[C@H]1C(=O)N[C@@H](CCCNC(=N)N)C(=O)N[C@@H](Cc1ccc(O)cc1)C(=O)N[C@H](C(=O)O)C(C)C [3102.0097] (H-KIKAGPRYV-OH)	6.9
CC[C@H](C)[C@H](NC(=O)[C@H](Cc1ccc(O)cc1)NC(=O)CNC(=O)CNC(=O)[C@@H](NC(=O)[C@H](Cc1ccccc1)NC(=O)[C@H](CCCNC(=N)N)NC(=O)[C@H](C)NC(=O)[C@@H](N)CCCNC(=N)N)[C@@H](C)CC)C(=O)O [3102.0226] (H-RARFIGGYI-OH)	0.26
CC(C)C[C@H](NC(=O)[C@H](C)NC(=O)[C@H](Cc1ccc(O)cc1)NC(=O)[C@H](CCCNC(=N)N)NC(=O)[C@@H](NC(=O)[C@@H](N)CC(C)C)[C@@H](C)O)C(=O)N[C@@H](Cc1c[nH]cn1)C(=O)NCC(=O)N[C@@H](CCCCN)C(=O)O [3102.0179] (H-LTRYALHGK-OH)	0.25
CC(C)C[C@H](NC(=O)[C@@H](N)CCCNC(=N)N)C(=O)N[C@@H](CCCCN)C(=O)N[C@@H](CO)C(=O)N[C@@H](C)C(=O)N[C@H](C(=O)N[C@@H](CS)C(=O)N[C@@H](Cc1ccc(O)cc1)C(=O)N[C@@H](CCCCN)C(=O)O)C(C)C [3102.0220] (H-RLKSAVCYK-OH)	0.18
CC[C@H](C)[C@H](NC(=O)[C@@H](N)CCCCN)C(=O)N[C@@H](CCCCN)C(=O)N[C@@H](CO)C(=O)N1CCC[C@H]1C(=O)N[C@H](C(=O)N[C@@H](Cc1ccc(O)cc1)C(=O)N[C@@H](Cc1ccc(O)cc1)C(=O)N[C@@H](CCCCN)C(=O)O)[C@@H](C)CC [3102.0014] (H-KIKSPIYYK-OH)	0.93
CC(C)[C@H](NC(=O)[C@@H](N)CO)C(=O)N[C@@H](CCCCN)C(=O)N[C@@H](CS)C(=O)N[C@@H](CCC(N)=O)C(=O)N[C@@H](CO)C(=O)N1CCC[C@H]1C(=O)N1CCC[C@H]1C(=O)N[C@@H](CO)C(=O)O [3102.0135] (H-SVKCQSPPS-OH)	17
CC[C@H](C)[C@H](NC(=O)[C@H](CCCNC(=N)N)NC(=O)[C@@H](NC(=O)[C@H](CC(=O)O)NC(=O)[C@H](CCCCN)NC(=O)[C@@H](NC(=O)[C@@H](N)CCCNC(=N)N)[C@@H](C)O)[C@@H](C)O)C(=O)N[C@@H](CCCCN)C(=O)N[C@@H](C)C(=O)O [3102.0205] (H-RTKDTRIKA-OH)	0.2
C[C@H](N)C(=O)N[C@H](C(=O)N[C@@H](C)C(=O)N[C@@H](CCCNC(=N)N)C(=O)N[C@@H](CO)C(=O)N[C@@H](CO)C(=O)N1CCC[C@H]1C(=O)N[C@@H](CCC(=O)O)C(=O)N[C@@H](CCCCN)C(=O)O)[C@@H](C)O [3102.0148] (H-ATARSSPEK-OH)	0.58
CC(C)C[C@H](NC(=O)[C@H](CC(N)=O)NC(=O)[C@H](CC(C)C)NC(=O)[C@H](CCCNC(=N)N)NC(=O)[C@H](CCCNC(=N)N)NC(=O)[C@H](CO)NC(=O)[C@H](CCCCN)NC(=O)[C@H](CO)NC(=O)[C@@H](N)CCCCN)C(=O)O [3102.0008] (H-KSKSRRLNL-OH)	13
CC[C@H](C)[C@H](NC(=O)[C@H](CCCCN)NC(=O)[C@H](C)NC(=O)CN)C(=O)NCC(=O)N[C@@H](CS)C(=O)N[C@H](C(=O)N[C@@H](CC(N)=O)C(=O)N[C@H](C(=O)O)C(C)C)[C@@H](C)CC [3102.1347] (H-GAKIGCINV-OH)	9.1
CC[C@H](C)[C@H](NC(=O)[C@H](C)NC(=O)[C@H](CC(C)C)NC(=O)[C@H](Cc1c[nH]cn1)NC(=O)[C@H](CCC(N)=O)NC(=O)[C@@H](N)Cc1c[nH]cn1)C(=O)N[C@@H](CCSC)C(=O)N[C@@H](Cc1ccccc1)C(=O)N[C@@H](CCCCN)C(=O)O [3102.0020] (H-HQHLAIMFK-OH)	5
CSCC[C@H](NC(=O)[C@H](CO)NC(=O)[C@H](C)NC(=O)CNC(=O)[C@H](CCCCN)NC(=O)[C@H](C)NC(=O)[C@H](C)N)C(=O)N[C@H](C(=O)N[C@@H](CC(C)C)C(=O)O)[C@@H](C)O [3102.0287] (H-AAKGASMTL-OH)	1
C[C@@H](O)[C@H](N)C(=O)N[C@H](C(=O)N[C@@H](CCCCN)C(=O)N[C@@H](CC(=O)O)C(=O)N[C@@H](Cc1ccc(O)cc1)C(=O)N[C@@H](Cc1ccccc1)C(=O)N[C@@H](CO)C(=O)N[C@@H](Cc1ccccc1)C(=O)N[C@@H](CCCCN)C(=O)O)[C@@H](C)O [3102.0168] (H-TTKDYFSFK-OH)	1.2
CC(C)C[C@H](N)C(=O)N[C@@H](C)C(=O)N[C@@H](CCCNC(=N)N)C(=O)N[C@@H](CCCNC(=N)N)C(=O)N1CCC[C@H]1C(=O)N[C@H](C(=O)N1CCC[C@H]1C(=O)N[C@@H](CCCCN)C(=O)N[C@@H](CCCCN)C(=O)O)[C@@H](C)O [3102.0275] (H-LARRPTPKK-OH)	10
CC[C@H](C)[C@H](NC(=O)[C@@H]1CCCN1C(=O)CNC(=O)[C@H](CCSC)NC(=O)[C@H](CCCCN)NC(=O)[C@H](CCC(N)=O)NC(=O)[C@@H](N)CCCCN)C(=O)N[C@@H](Cc1ccc(O)cc1)C(=O)N[C@@H](C)C(=O)O [3102.0136] (H-KQKMGPIYA-OH)	22
CC(C)C[C@H](NC(=O)[C@@H](N)CCCCN)C(=O)N[C@@H](CCCNC(=N)N)C(=O)N[C@@H](CS)C(=O)N[C@@H](CCCNC(=N)N)C(=O)N[C@@H](CC(N)=O)C(=O)N[C@H](C(=O)N[C@@H](CCC(=O)O)C(=O)N[C@@H](C)C(=O)O)[C@@H](C)O [3102.0105] (H-KLRCRNTEA-OH)	14
CC[C@H](C)[C@H](NC(=O)[C@H](Cc1ccccc1)NC(=O)[C@H](CCCCN)NC(=O)CNC(=O)[C@H](CCC(N)=O)NC(=O)[C@H](CCCNC(=N)N)NC(=O)[C@@H](NC(=O)[C@@H](N)CCCNC(=N)N)[C@@H](C)CC)C(=O)N[C@@H](CCCCN)C(=O)O [3102.0028] (H-RIRQGKFIK-OH)	4.8
CC(C)C[C@H](NC(=O)[C@H](CCCCN)NC(=O)[C@H](CCCCN)NC(=O)[C@@H](NC(=O)[C@@H](N)CCCCN)C(C)C)C(=O)N[C@@H](CC(N)=O)C(=O)N[C@@H](CCCNC(=N)N)C(=O)N[C@@H](CS)C(=O)N[C@@H](C)C(=O)O [3102.0262] (H-KVKKLNRCA-OH)	3.1
CC(C)C[C@H](N)C(=O)N[C@H](C(=O)N[C@@H](CCCCN)C(=O)N[C@@H](CO)C(=O)N[C@@H](CO)C(=O)N[C@@H](Cc1ccccc1)C(=O)N[C@H](C(=O)N[C@@H](CCCCN)C(=O)N[C@@H](CCCCN)C(=O)O)C(C)C)C(C)C [3102.0185] (H-LVKSSFVKK-OH)	5.6
CC(C)C[C@H](NC(=O)[C@H](CCC(N)=O)NC(=O)[C@H](Cc1c[nH]cn1)NC(=O)[C@H](CCCCN)NC(=O)[C@H](CO)NC(=O)[C@H](CO)NC(=O)[C@@H](NC(=O)[C@@H](N)CCCCN)C(C)C)C(=O)N[C@H](C(=O)O)C(C)C [3102.0182] (H-KVSSKHQLV-OH)	14
CC(C)C[C@H](NC(=O)[C@H](Cc1ccccc1)NC(=O)[C@@H](NC(=O)CNC(=O)[C@H](Cc1ccc(O)cc1)NC(=O)[C@H](CCCNC(=N)N)NC(=O)[C@H](Cc1ccc(O)cc1)NC(=O)[C@@H](N)CCCCN)[C@@H](C)O)C(=O)N[C@@H](Cc1ccc(O)cc1)C(=O)O [3102.0156] (H-KYRYGTFLY-OH)	1.1
C[C@H](NC(=O)[C@H](C)NC(=O)[C@H](CC(N)=O)NC(=O)[C@H](CCC(N)=O)NC(=O)[C@@H]1CCCN1C(=O)[C@H](CC(=O)O)NC(=O)[C@H](CCCNC(=N)N)NC(=O)[C@@H](NC(=O)[C@@H](N)Cc1c[nH]cn1)[C@@H](C)O)C(=O)O [3102.0224] (H-HTRDPQNAA-OH)	0.91
CC(C)[C@H](NC(=O)[C@H](CO)NC(=O)[C@H](C)NC(=O)[C@H](Cc1c[nH]cn1)NC(=O)[C@H](CC(N)=O)NC(=O)[C@H](Cc1ccccc1)NC(=O)[C@H](C)NC(=O)[C@@H](N)CCCCN)C(=O)N[C@@H](CCCCN)C(=O)O [3102.0118] (H-KAFNHASVK-OH)	35
